Experimental data from patent publication US10947242B2, “[1,2,4]triazolo[1,5and#8208;A]pyrimidine compounds as PDE2 inhibitors” (Janssen Pharmaceutica NV, priority 2016, dated 2021).
Read-outs that look alike come from different tables or passages of the source.

How the values were obtained:
PDE2A = target: T1, PDE2A (Rattus norvegicus, UniProt Q01062); test: PDE2 occupancy by test compounds, ex-vivo autoradiography with [3H]B-17a; format: in vivo, Male Wistar rats; details: for receptor occupancy at 10 mg/kg: route PO (oral), percentage receptor occupancy, ex-vivo autoradiography, striatum; for ED50: read-out: PDE Occupancy ED50
T1 construct: Twenty μm-thick striatal sections were cut; from tissue; host or cells: rat brain, striatal sections
T1 sequence (Q01062 1-928): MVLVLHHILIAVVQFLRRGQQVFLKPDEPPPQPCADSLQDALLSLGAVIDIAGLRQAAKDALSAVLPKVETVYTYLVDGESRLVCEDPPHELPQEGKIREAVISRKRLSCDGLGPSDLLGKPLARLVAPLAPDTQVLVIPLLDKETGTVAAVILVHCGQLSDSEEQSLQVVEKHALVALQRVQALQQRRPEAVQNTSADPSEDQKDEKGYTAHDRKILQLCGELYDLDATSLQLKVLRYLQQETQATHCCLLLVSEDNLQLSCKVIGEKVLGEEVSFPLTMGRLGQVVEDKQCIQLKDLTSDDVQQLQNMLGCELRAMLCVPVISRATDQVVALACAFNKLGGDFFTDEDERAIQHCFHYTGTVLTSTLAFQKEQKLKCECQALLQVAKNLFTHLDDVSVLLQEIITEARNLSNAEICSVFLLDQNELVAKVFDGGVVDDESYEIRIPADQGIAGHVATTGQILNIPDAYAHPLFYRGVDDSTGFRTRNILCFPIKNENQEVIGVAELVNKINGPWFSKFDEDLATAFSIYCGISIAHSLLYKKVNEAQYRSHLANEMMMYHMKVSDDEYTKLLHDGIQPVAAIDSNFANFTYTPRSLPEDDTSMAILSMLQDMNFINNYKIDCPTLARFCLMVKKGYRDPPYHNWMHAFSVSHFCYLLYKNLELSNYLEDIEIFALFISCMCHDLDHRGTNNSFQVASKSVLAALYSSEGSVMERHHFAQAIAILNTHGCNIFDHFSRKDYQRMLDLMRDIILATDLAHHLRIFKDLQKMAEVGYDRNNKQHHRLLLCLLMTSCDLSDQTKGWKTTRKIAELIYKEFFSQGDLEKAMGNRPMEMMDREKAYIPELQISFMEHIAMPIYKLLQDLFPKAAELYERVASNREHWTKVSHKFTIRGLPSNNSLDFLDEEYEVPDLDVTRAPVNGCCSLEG

[1] = target: T2, Human recombinant PDE10A (hPDE10A) (Homo sapiens, UniProt Q9Y233); test: In vitro assay PDE10A, human clone (SPA, 3H-cAMP hydrolysis); format: biochemical; details: human clone by default (no (r) mark); for Emax: read-out: hPDE10A2 or rPDE10A2 Emax; for IC50: read-out: hPDE10A2 or rPDE10A2 pIC50 (converted)
T2 construct: His tag (inferred from metal chelate purification); made in house; host or cells: Sf9 insect cells (baculovirus)
T2 sequence (Q9Y233 267-1055): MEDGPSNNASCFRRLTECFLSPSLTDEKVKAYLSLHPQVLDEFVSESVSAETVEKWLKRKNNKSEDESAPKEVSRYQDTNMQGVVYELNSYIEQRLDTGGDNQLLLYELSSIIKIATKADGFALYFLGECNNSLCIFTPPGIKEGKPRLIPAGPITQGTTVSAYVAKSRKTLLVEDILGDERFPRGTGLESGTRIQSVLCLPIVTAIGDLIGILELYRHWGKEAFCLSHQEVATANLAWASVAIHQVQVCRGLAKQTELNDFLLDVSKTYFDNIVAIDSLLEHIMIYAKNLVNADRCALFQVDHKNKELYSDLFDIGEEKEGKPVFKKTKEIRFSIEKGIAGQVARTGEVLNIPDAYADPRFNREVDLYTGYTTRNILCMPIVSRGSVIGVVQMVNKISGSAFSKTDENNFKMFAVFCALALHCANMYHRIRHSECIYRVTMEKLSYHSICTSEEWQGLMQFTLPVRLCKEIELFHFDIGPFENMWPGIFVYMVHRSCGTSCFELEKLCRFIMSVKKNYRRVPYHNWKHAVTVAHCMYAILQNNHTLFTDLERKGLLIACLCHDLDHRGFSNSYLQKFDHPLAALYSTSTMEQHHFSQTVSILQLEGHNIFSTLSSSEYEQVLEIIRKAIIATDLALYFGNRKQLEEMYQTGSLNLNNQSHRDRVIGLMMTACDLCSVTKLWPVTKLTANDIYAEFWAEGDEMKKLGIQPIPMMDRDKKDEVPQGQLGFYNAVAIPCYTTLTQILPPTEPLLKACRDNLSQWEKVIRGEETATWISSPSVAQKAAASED
Method in brief: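 Hydrolysis of 3H-cAMP (60 nM cAMP, 0.008 μCi tracer) proceeded for 60 min at room temperature, with the product detected by SPA bead scintillation counting. The enzyme was hPDE10A from baculovirus-infected Sf9 cells in Tris pH 7.8 buffer with MgCl2 and EGTA, and compounds were at 1% DMSO final. Blanks lacked enzyme.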

[2] = target: T3, Human recombinant PDE2A (hPDE2A) (Homo sapiens, UniProt O00408); test: In vitro assay PDE2A (SPA, 3H-cGMP hydrolysis); format: biochemical; details: for Emax: read-out: hPDE2A Emax
T3 construct: His tag (inferred from metal chelate purification); made in house; host or cells: Sf9 insect cells (baculovirus)
T3 sequence (O00408 whole entry): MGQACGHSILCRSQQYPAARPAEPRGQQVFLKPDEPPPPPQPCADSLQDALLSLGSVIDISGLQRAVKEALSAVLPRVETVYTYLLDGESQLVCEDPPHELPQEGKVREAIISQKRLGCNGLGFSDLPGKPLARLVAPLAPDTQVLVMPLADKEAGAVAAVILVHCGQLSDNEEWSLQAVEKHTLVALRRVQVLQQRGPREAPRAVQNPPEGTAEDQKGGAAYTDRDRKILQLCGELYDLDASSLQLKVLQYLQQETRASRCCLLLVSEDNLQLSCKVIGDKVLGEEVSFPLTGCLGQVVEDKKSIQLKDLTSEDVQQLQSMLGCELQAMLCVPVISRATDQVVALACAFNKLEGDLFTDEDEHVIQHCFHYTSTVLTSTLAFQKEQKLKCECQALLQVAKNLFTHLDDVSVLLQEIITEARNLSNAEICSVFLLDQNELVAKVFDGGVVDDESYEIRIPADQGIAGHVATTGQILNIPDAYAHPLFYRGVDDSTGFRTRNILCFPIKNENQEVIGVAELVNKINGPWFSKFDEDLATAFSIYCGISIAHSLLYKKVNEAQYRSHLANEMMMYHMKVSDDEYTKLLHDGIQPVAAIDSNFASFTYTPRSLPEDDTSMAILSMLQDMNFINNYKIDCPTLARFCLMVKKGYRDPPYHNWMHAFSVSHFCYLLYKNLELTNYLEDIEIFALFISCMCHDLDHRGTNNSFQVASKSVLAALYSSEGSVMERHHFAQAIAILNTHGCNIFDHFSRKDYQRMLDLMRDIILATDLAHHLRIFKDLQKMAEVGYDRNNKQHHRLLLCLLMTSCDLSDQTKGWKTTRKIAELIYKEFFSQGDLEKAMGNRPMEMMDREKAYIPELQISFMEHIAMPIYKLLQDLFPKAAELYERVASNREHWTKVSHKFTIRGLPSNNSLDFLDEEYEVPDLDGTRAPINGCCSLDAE

[3] = target: T4, Human recombinant PDE3A (hPDE3A) (Homo sapiens, UniProt Q14432); test: In vitro assay PDE3A (SPA, 3H-cAMP hydrolysis); format: biochemical; details: for IC50: hPDE3B pIC50, read-out: pIC50 (converted); for Emax: read-out: hPDE3B Emax, read-out: Emax;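 on all read-outs here: the method names PDE3A and the table heading PDE3B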
T4 construct: purchased Scottish Biomedical; host or cells: Sf9 insect cells
T4 sequence (Q14432 whole entry): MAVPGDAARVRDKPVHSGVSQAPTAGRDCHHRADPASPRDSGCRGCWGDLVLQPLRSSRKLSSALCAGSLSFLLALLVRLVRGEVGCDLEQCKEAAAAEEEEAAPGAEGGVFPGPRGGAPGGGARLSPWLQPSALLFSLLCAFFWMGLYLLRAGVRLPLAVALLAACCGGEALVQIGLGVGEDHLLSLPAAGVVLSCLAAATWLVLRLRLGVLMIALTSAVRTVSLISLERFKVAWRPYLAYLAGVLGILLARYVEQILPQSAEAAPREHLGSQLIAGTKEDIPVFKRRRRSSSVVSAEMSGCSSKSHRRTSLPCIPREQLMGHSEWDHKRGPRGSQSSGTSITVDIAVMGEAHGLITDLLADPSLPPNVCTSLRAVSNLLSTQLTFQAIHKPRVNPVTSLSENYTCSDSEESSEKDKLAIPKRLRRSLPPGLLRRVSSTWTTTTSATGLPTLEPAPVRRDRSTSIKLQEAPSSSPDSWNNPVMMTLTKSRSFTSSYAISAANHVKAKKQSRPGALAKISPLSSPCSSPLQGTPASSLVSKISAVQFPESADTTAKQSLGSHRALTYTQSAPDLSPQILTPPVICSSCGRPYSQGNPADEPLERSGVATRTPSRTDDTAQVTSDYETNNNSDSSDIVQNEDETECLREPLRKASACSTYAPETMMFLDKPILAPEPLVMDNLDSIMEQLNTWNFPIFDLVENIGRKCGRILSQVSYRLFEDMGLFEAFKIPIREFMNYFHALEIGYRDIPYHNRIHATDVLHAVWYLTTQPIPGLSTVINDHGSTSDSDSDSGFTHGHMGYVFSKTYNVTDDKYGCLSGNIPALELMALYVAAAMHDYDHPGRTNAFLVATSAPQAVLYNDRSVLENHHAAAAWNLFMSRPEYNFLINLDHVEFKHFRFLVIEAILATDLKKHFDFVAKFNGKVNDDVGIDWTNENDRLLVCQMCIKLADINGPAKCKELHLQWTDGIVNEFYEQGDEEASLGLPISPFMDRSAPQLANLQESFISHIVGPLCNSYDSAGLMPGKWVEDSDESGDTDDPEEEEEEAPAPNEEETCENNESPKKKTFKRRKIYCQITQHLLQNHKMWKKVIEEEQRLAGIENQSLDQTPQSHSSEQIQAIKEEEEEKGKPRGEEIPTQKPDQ
Method in brief: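 Radiometric SPA measuring [3H]-cAMP hydrolysis (0.4 μM cAMP, 2.4 μCi/ml) over 60 min at room temperature, in Tris pH 7.8 buffer with MgCl2 and EGTA, 1% DMSO. Enzyme: recombinant human brain PDE3A expressed in Sf9 cells, used as partially purified lysate. Counts compared with enzyme-free blanks and vehicle controls.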

[4] = read-out: hPDE2A pIC50 (converted)

Row | SMILES | receptor occupancy at 10 mg/kg (PDE2A; po) [%] | ED50 (PDE2A; po) [mg/kg] | Emax [1] [%] | IC50 [1] [nM] | melting point [°C] | IC50 ([2]; hPDE2A pIC50) [nM] | Emax [2] [%] | IC50 [3] [nM] | Emax [3] [%] | IC50 [2, 4] [nM] | receptor occupancy at 10 mg/kg (PDE2A) [%]
1 | Cc1cc(C(=O)N2CC[C@@H](C)[C@H](c3cc(C(F)F)nc4ncnn34)C2)cc(C(F)F)n1 [Compound 321] | 73 | 3.37 | 97 | 309 | 137.5 | 2.19 | 101 | 8130 | 45 | – | –
2 | C[C@@H]1CCN(C(=O)c2cn(C)c3ccccc23)C[C@H]1c1cc(C(F)F)nc2ncnn12 [Compound 328] | -18 | – | 100 | 61.7 | 247.48 | – | 100 | 1480 | 90 | 0.631 | –
3 | C[C@@H]1CCN(C(=O)c2ccc3ncc(F)cc3c2)C[C@H]1c1cc(C(F)F)nc2ncnn12 [Compound 332] | 8 | – | 98 | 30.9 | 183.18 | – | 99 | 1200 | 90 | 4.79 | –
4 | C[C@@H]1CCN(C(=O)c2cc(Cl)cc(Cl)c2)C[C@H]1c1cc(C(F)F)nc2ncnn12 [Compound 334] | 17 | – | 98 | 100 | 239.87 | 2.45 | 100 | 2340 | 84 | – | –
5 | O=C(c1ccc2occc2c1)N1[C@H]2CC[C@H](c3cc(C(F)F)nc4ncnn34)[C@@H]1CC2 [Compound 353] | – | – | 94 | 977 | 230.66 | – | 99 | 4790 | 69 | 3.39 | 15
6 | O=C(c1ccc(Cl)c(Cl)c1)N1[C@H]2CC[C@H](c3cc(C(F)F)nc4ncnn34)[C@@H]1CC2 [Compound 356] | – | 5.55 | 92 | 933 | 187.93 | – | 99 | 5890 | 65 | 5.37 | 51
7 | CCn1ccc2cc(C(=O)N3[C@H]4CC[C@H](c5cc(C(F)F)nc6ncnn56)[C@@H]3CC4)ccc21 [Compound 363] | – | – | 98 | 178 | 221.75 | – | 99 | 617 | 97 | 0.275 | -11
